In the assay the test system is P388 leukemia ip, CD2F1 mice, survival T/C. As to the kind of experiment: NCI In Vivo Anticancer Drug Screen. Data for tumor model P388 Leukemia (intraperitoneal) in CD2F1 (CDF1) mice. The note with it: endpoint: median survival time, higher = longer survival. The gist of the method:
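Mice carrying the transplanted tumor received test compound or vehicle. Survival was recorded in each group, and the value is the treated-group measurement divided by that of the vehicle-treated control group.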

Where [1] appears, read: dose: 30.0 mg/kg/injection, schedule: Q01DX005 (ip), vehicle: saline with Tween-80.
Setting [2] is: dose: 60.0 mg/kg/injection, schedule: Q01DX005 (ip), vehicle: saline with Tween-80.
[3] abbreviates: dose: 120.0 mg/kg/injection, schedule: Q01DX005 (ip), vehicle: saline with Tween-80.
The mark [4] stands for this setting: dose: 240.0 mg/kg/injection, schedule: Q01DX005 (ip), vehicle: saline with Tween-80.
[5] abbreviates: dose: 50.0 mg/kg/injection, schedule: Q01DX009 (ip), vehicle: saline.

Values joined by “and” are separate entries in the source; they are usually repeats but may differ in a detail not shown here. Equal values may be shown once. Toxic doses and inconclusive results are not listed.

As to `CCCCCCCCCCSCC(CO)NC(=O)/C=C/c1c(C)[nH]c(=O)[nH]c1=O` (stereo not drawn), the T/C is 104 % of control (dose: 3.13 mg/kg/injection, schedule: Q01DX009 (ip), vehicle: distilled water + Tween-80); 112 % of control (dose: 6.25 mg/kg/injection, schedule: Q01DX009 (ip), vehicle: distilled water + Tween-80); 114 % of control and 117 % of control (dose: 6.25 mg/kg/injection, schedule: Q01DX009 (ip), vehicle: other); 110 % of control (dose: 12.5 mg/kg/injection, schedule: Q01DX009 (ip), vehicle: distilled water + Tween-80); 114 % of control and 115 % of control (dose: 12.5 mg/kg/injection, schedule: Q01DX009 (ip), vehicle: other); 99 % of control and 110 % of control (dose: 25.0 mg/kg/injection, schedule: Q01DX009 (ip), vehicle: distilled water + Tween-80). Besides, the T/C by setting is: (dose: 50.0 mg/kg/injection, schedule: Q01DX009 (ip), vehicle: distilled water + Tween-80) 106 % of control and 112 % of control; (dose: 50.0 mg/kg/injection, schedule: Q01DX009 (ip), vehicle: other) 93 % of control; (dose: 100.0 mg/kg/injection, schedule: Q01DX009 (ip), vehicle: distilled water + Tween-80) 108 % of control; (dose: 100.0 mg/kg/injection, schedule: Q01DX009 (ip), vehicle: other) 155 % of control.

Consider `CCOC(=O)C(=O)Nc1ccccc1C#N`, for which the T/C (dose: 50.0 mg/kg/injection, schedule: Q01DX009 (ip), vehicle: saline + alcohol) was 105 % of control; the T/C (dose: 100.0 mg/kg/injection, schedule: Q01DX009 (ip), vehicle: saline + alcohol) was 99 % of control; the T/C (dose: 200.0 mg/kg/injection, schedule: Q01DX009 (ip), vehicle: saline + alcohol) was 101 % of control.

For the compound `COc1cc(C(CC(C)=O)c2cc3c(cc2OC(C)=O)OCO3)cc(OC)c1OC` (stereo not drawn) (tested in a mixture with another compound), the T/C under setting [1] was 99 % of control; the T/C under setting [2] was 102 % of control and 122 % of control; the T/C under setting [3] is 118 % of control; the T/C under setting [4] was 162 % of control and 188 % of control.

For `CC1(C)C2CCC1(C)C(O)C2N` (stereo not drawn), the T/C by setting is: under setting [1], 93 % of control; under setting [2], 94 % of control and 95 % of control.

For the compound `O=C1C(Cl)=C(Nc2cccc3ccccc23)C(=O)c2ccccc21`, the T/C runs as follows: (dose: 6.25 mg/kg/injection, schedule: Q01DX005 (ip), vehicle: saline with Tween-80) 104 % of control; (dose: 12.5 mg/kg/injection, schedule: Q01DX005 (ip), vehicle: saline with Tween-80) 101 % of control; (dose: 25.0 mg/kg/injection, schedule: Q01DX005 (ip), vehicle: saline with Tween-80) 109 % of control; (dose: 50.0 mg/kg/injection, schedule: Q01DX005 (ip), vehicle: saline with Tween-80) 108 % of control.

For the compound `O=[N+]([O-])c1ccc(/C=C/C=C/C=C/C=C/c2ccc(S(=O)(=O)F)cc2Cl)c(Cl)c1`, the T/C is 99 % of control (dose: 15.0 mg/kg/injection, schedule: Q01DX005 (ip), vehicle: saline with Tween-80); 104 % of control under setting [1]; 92 % of control and 98 % of control under setting [2].

As to `O=C1C(=Cc2cc(Cl)c(O)c(Cl)c2)C(=O)c2ccccc21`, the T/C runs as follows: (dose: 100.0 mg/kg/injection, schedule: Q04DX002 (ip), vehicle: saline) 97 % of control; (dose: 200.0 mg/kg/injection, schedule: Q04DX002 (ip), vehicle: saline) 86 % of control; (dose: 400.0 mg/kg/injection, schedule: Q04DX002 (ip), vehicle: saline) 88 % of control.

As to `COc1ccc(C(CCO)c2cc3c(cc2OC)OCO3)cc1` (stereo not drawn), the T/C (dose: 50.0 mg/kg/injection, schedule: Q01DX005 (ip), vehicle: distilled water + Tween-80) is 101 % of control; the T/C (dose: 100.0 mg/kg/injection, schedule: Q01DX005 (ip), vehicle: distilled water + Tween-80) is 101 % of control; the T/C (dose: 200.0 mg/kg/injection, schedule: Q01DX005 (ip), vehicle: distilled water + Tween-80) was 98 % of control.

With `O=C(O)CCc1ccc(O)c(O)c1`, the T/C is, setting by setting: under setting [5], 102 % of control and 111 % of control; (dose: 100.0 mg/kg/injection, schedule: Q01DX009 (ip), vehicle: saline) 100 % of control and 111 % of control; (dose: 200.0 mg/kg/injection, schedule: Q01DX009 (ip), vehicle: saline) 108 % of control and 110 % of control; (dose: 400.0 mg/kg/injection, schedule: Q01DX009 (ip), vehicle: saline) 111 % of control and 115 % of control.

Regarding `CC1C2=C(C(=O)N1Cc1ccccc1)C(C1OC(COC(=O)c3ccccc3)C(OC(=O)c3ccccc3)C1OC(=O)c1ccccc1)C(=O)N(C)C2=O` (stereo not drawn), the T/C (dose: 39.0 mg/kg/injection, schedule: Q01DX009 (ip), vehicle: Klucel (hydroxypropylcellulose) (HPC)) was 97 % of control; the T/C (dose: 78.0 mg/kg/injection, schedule: Q01DX009 (ip), vehicle: Klucel (hydroxypropylcellulose) (HPC)) was 99 % of control; the T/C (dose: 156.0 mg/kg/injection, schedule: Q01DX009 (ip), vehicle: Klucel (hydroxypropylcellulose) (HPC)) was 95 % of control.

Consider `O=[N+]([O-])c1cccc(CNc2ccccc2)c1`, for which the T/C is, setting by setting: (dose: 100.0 mg/kg/injection, schedule: Q04DX003 (ip), vehicle: Klucel (hydroxypropylcellulose) (HPC)) 101 % of control; (dose: 200.0 mg/kg/injection, schedule: Q04DX003 (ip), vehicle: Klucel (hydroxypropylcellulose) (HPC)) 101 % of control; (dose: 400.0 mg/kg/injection, schedule: Q04DX003 (ip), vehicle: Klucel (hydroxypropylcellulose) (HPC)) 109 % of control.

With `CC(NNC(=S)N(C)C1CCCCC1)c1nccc2ccccc12` (stereo not drawn), the T/C reads like this: (dose: 30.12 mg/kg/injection, schedule: Q01DX001 (ip), vehicle: Klucel (hydroxypropylcellulose) (HPC)) 101 % of control and 102 % of control; (dose: 60.25 mg/kg/injection, schedule: Q01DX001 (ip), vehicle: Klucel (hydroxypropylcellulose) (HPC)) 103 % of control and 107 % of control and 108 % of control; (dose: 120.5 mg/kg/injection, schedule: Q01DX001 (ip), vehicle: Klucel (hydroxypropylcellulose) (HPC)) 114 % of control and 115 % of control; (dose: 241.0 mg/kg/injection, schedule: Q01DX001 (ip), vehicle: Klucel (hydroxypropylcellulose) (HPC)) 108 % of control and 113 % of control.

As for `CC(=O)N1C(=O)C2(Nc3cc4ccccc4cc3N2)c2ccccc21`, the T/C under setting [2] was 94 % of control, the T/C under setting [3] was 93 % of control and the T/C under setting [4] was 92 % of control.

Take `CN1c2ccccc2SC12C(=O)N(c1ccccc1)C(=O)N2c1ccccc1` (stereo not drawn): the T/C runs as follows: (dose: 50.0 mg/kg/injection, schedule: Q01DX009 (ip), vehicle: saline with Tween-80) 103 % of control; (dose: 100.0 mg/kg/injection, schedule: Q01DX009 (ip), vehicle: saline with Tween-80) 100 % of control; (dose: 200.0 mg/kg/injection, schedule: Q01DX009 (ip), vehicle: saline with Tween-80) 103 % of control.

For the compound `CC1(C)CC1(Cl)S(C)(=O)=O` (stereo not drawn), the T/C was 106 % of control (dose: 100.0 mg/kg/injection, schedule: Q01DX001 (ip), vehicle: saline with Tween-80); 105 % of control (dose: 200.0 mg/kg/injection, schedule: Q01DX001 (ip), vehicle: saline with Tween-80); 100 % of control (dose: 400.0 mg/kg/injection, schedule: Q01DX001 (ip), vehicle: saline with Tween-80).

Regarding `C=C1C(=O)OC2/C=C(\C)CC/C=C(/CO)C(OC(=O)C(C)(C)O)C(OC(=O)C(C)C)C12` (stereo not drawn), the T/C (dose: 5.0 mg/kg/injection, schedule: Q01DX009 (ip), vehicle: other) is 107 % of control.

Regarding `COc1cccc(C[n+]2ccccc2C#N)c1`, the T/C (dose: 12.5 mg/kg/injection, schedule: Q01DX009 (ip), vehicle: saline) was 100 % of control; the T/C (dose: 25.0 mg/kg/injection, schedule: Q01DX009 (ip), vehicle: saline) was 106 % of control; the T/C under setting [5] was 100 % of control and 96 % of control.

Take `CC(=O)CC(=O)Nc1ccc(Oc2ccccc2)cc1`: the T/C reads like this: (dose: 100.0 mg/kg/injection, schedule: Q04DX002 (ip), vehicle: Klucel (hydroxypropylcellulose) (HPC)) 100 % of control; (dose: 200.0 mg/kg/injection, schedule: Q04DX002 (ip), vehicle: Klucel (hydroxypropylcellulose) (HPC)) 97 % of control; (dose: 400.0 mg/kg/injection, schedule: Q04DX002 (ip), vehicle: Klucel (hydroxypropylcellulose) (HPC)) 96 % of control.

As to `CCOC(=O)CNC(=O)Oc1ccc(Cl)cn1`, the T/C (dose: 50.0 mg/kg/injection, schedule: Q01DX009 (ip), vehicle: Klucel (hydroxypropylcellulose) (HPC)) was 102 % of control; the T/C (dose: 100.0 mg/kg/injection, schedule: Q01DX009 (ip), vehicle: Klucel (hydroxypropylcellulose) (HPC)) was 97 % of control; the T/C (dose: 200.0 mg/kg/injection, schedule: Q01DX009 (ip), vehicle: Klucel (hydroxypropylcellulose) (HPC)) is 102 % of control.

As to `O=C(NC(Cc1cn(Cc2ccccc2)cn1)C(=O)O)OCC1c2ccccc2-c2ccccc21` (stereo not drawn), the T/C is, setting by setting: (dose: 50.0 mg/kg/injection, schedule: Q01DX005 (ip), vehicle: Klucel (hydroxypropylcellulose) (HPC)) 104 % of control; (dose: 100.0 mg/kg/injection, schedule: Q01DX005 (ip), vehicle: Klucel (hydroxypropylcellulose) (HPC)) 98 % of control; (dose: 200.0 mg/kg/injection, schedule: Q01DX005 (ip), vehicle: Klucel (hydroxypropylcellulose) (HPC)) 99 % of control.

Source of the values: PubChem BioAssay AID330 (DTP/NCI, 2004).
